Drawing on ChEMBL document CHEMBL1138690, “Carbonic anhydrase inhibitors. Inhibition of the newly isolated murine isozyme XIII with anions” (Bioorg Med Chem Lett, 2004), this text covers Ki for 14 compounds.

Molecules are shown by their SMILES.

Among the targets are Carbonic anhydrase 13 (Mus musculus, UniProt Q9D6N1); Carbonic anhydrase V (Homo sapiens, UniProt Q9Y2D0+P35218); Carbonic anhydrase 1 (Homo sapiens, UniProt P00915).

Carbonic anhydrase 13, sequence (Q9D6N1 whole entry): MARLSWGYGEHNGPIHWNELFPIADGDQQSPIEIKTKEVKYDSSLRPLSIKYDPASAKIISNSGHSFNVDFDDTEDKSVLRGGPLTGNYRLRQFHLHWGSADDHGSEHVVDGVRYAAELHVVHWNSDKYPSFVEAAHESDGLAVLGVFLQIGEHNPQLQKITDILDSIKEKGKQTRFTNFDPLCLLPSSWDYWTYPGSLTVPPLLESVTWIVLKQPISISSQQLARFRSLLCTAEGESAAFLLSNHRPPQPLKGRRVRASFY
Carbonic anhydrase 1, sequence (P00915 whole entry): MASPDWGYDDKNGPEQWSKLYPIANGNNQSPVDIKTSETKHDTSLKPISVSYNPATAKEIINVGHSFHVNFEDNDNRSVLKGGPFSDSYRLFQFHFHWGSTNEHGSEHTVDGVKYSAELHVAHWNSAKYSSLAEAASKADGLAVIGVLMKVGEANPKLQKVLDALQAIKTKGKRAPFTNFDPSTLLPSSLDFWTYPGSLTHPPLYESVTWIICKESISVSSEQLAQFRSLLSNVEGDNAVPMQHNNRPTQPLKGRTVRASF
Description for Carbonic anhydrase 13: Inhibitory activity against mouse carbonic anhydrase XIII expressed in Escherichia coli TOP 10
Description for Carbonic anhydrase V: Inhibitory activity against human carbonic anhydrase V expressed in Escherichia coli

With `N#CS` [THIOCYANIC ACID], affinity at Carbonic anhydrase 13 was put at a Ki of 0.74 mM. Still for that read-out and setting: under `Br` [BROMIDE] stands 45 mM. Take `S` [HYDROGEN SULFIDE]: the Ki was determined as 0.02 mM on Carbonic anhydrase V and 5.2 mM on Carbonic anhydrase 13. `NS(N)(=O)=O` [SULFAMIDE] came in with an inhibition constant Ki at Carbonic anhydrase 13 of 0.14 mM. Regarding `O=[N+]([O-])O` [NITRIC ACID], the Ki came out at 16 mM at Carbonic anhydrase V and 36 mM at Carbonic anhydrase 13. In the same order, the values of `Cl` [HYDROCHLORIC ACID] are 156 mM and 138 mM. On to `N#CO` [CYANATE], for which the Ki on Carbonic anhydrase 13 was determined as 0.00025 mM.

For the compound `O=S(O)O` [SULFUROUS ACID], the inhibition constant (Ki) was 18 mM at Carbonic anhydrase 1 and 75.5 mM on Carbonic anhydrase 13.

As for `O=S(=O)(O)O` [SULFURIC ACID], the results for the Ki on Carbonic anhydrase V and on Carbonic anhydrase 13 were 680 mM and 267 mM, respectively. On the same counts, the results for `OB(O)c1ccccc1` [PHENYLBORONIC ACID] are 4.51 mM and 2.85 mM. On the same counts, the results for `NS(=O)(=O)O` [SULFAMATE] are 0.12 mM and 21.5 mM. Compound `F` [FLUORIDE ION] had a Ki at Carbonic anhydrase 13 of 3 mM. As for `I` [IODIDE], the inhibition constant (Ki) at Carbonic anhydrase V was 25 mM; on Carbonic anhydrase 13 it was 5.4 mM.

Regarding `O=NO` [NITROUS ACID], at Carbonic anhydrase 13, the Ki was 12.6 mM.

The Ki is the dissociation constant of the complex between target and ligand, obtained from inhibition or displacement.
